# From patent US20160030416A1, “METHODS OF TREATING B2-BRADYKININ RECEPTOR MEDIATED ANGIOEDEMA” (SHIRE HUMAN GENETIC THERAPIES, INC., priority 2013, published 2016)
# Experiments:
# [1] = test system: plasma extravasation; assay: Plasma extravasation (Evans blue in bladder), IV bolus, wild-type mice; type: in vivo, wild-type (WT) C57/BL6 male mice; details: for Evans blue (EB) in the bladder: controls 0.7927
# From the text: In vivo experiments in both wild-type (WT) C57BL/6J mice and C1-inhibited knock out (C1 INH KO) mice measured pharmacodynamic efficacy by the ability of CFMQ to block plasma extravasation, which is causative to edema, the most important symptom requiring treatment in HAE subjects. This plasma extravasation model has been used extensively in the literature to investigate the efficacy of bradykinin receptor antagonists. (Han et al., “Increased vascular permeability in C1 inhibitor-deficient mice mediated by the bradykinin type 2 receptor,” J Clin Invest, 2002 April; 109(8): 1057-1063.)
# The uptake and effective blocking of plasma extravasation of CFMQ was examined following IV (intravenous) bolus administration in wild-type (WT) C57/BL6 male mice (n=4/dose group). Mice received CFMQ (HGT3711) (2 μL/g) at 1.0 μg/kg, 100 μg/kg, and/or 6 mg/kg. Following CFMQ administration and prior to the terminal time point, mice received an IV injection of Evans blue (EB) dye (30 mg/kg) and were sacrificed. The bladder was removed, dried and weighed and extracted in formamide (1.0 mL). EB concentration in the formamide extract was determined spectrophotometrically and EB content was calculated as μg EB per milligram of tissue weight. Efficacy was determined by inhibiting the accumulation of EB in the bladder.
# CFMQ doses of 0.001, 0.05, 0.1, 0.25, 0.5, 1.0, and or 3.0 mg/kg were administered as IV bolus injections to WT mice (n=8/dose group).
# [2] = In vitro microsomal stability, mouse; type: in vitro ADME; details: Mouse (CD-1), Male
# Description: In vitro metabolic stability studies were performed to determine hepatic stability in vivo. CFMQ was incubated in liver microsomal preparations from mouse, rat, dog, mini-pig, and humans, as well as an additional study with monkey and human. CFMQ was incubated with human and animal liver microsomes at 0.3 mg/mL at 37° C. for 30 or 60 minutes. Additional reference compounds were incubated as controls. Following incubation, samples were analyzed by HPLC-MS/MS.
# [3] = molecular target: T1, human B2-bradykinin receptor (Homo sapiens, UniProt P30411); assay: Calcium mobilization assay in human fibroblast (HF15) cells; type: cell-based; parameters: endogenous in cells; host or cells: HF15 human fibroblasts; details: 25 minutes pre-incubation at 25° C., read-out: IC50, inhibition of bradykinin-induced calcium mobilization
# T1 sequence (P30411 1-391): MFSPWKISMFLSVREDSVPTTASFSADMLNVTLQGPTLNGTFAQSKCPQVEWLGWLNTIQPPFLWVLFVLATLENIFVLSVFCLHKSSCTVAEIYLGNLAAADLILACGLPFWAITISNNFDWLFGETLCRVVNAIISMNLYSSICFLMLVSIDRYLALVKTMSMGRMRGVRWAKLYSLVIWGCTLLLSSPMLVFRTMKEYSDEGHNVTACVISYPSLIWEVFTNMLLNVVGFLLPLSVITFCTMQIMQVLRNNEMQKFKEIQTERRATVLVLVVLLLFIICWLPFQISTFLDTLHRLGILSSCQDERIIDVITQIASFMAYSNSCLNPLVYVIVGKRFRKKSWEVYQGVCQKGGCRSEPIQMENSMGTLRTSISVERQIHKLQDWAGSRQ
# Description: CFMQ was formulated as a 5 nM stock solution in 100% DMSO and serially diluted to 0.04, 0.12, 0.37, 1.11, 3.33, 10 and 30 nM. Human fibroblast (HF15) cells, which express the human B2R were loaded with 100 μL calcium dye solution containing 2.5 mM probenicide and were then pre-incubated with CFMQ for 25 minutes at 25° C. The inhibition effect of CFMQ on bradykinin-mediated calcium mobilization was tested in this system by emission of fluorescence signals, using the height of the resulting peak over the baseline value (relative fluorescence units [RFU] max-min). The percent inhibition for each concentration was used for curve fit and IC50 calculation.
smiles,measurement,setting,value
"Cc1cc(Cl)c(COc2cccc3c(-n4cc(F)cn4)cc(C)nc23)c(Cn2cccc(C#N)c2=O)n1 [CFMQ, 1-((4-Chloro-3-(((4-(4-fluoro-1H-pyrazol-1-yl)-2-methylquinolin-8-yl)oxy)methyl)-6-methylpyridin-2-yl)methyl)-2-oxo-1,2-dihydropyridine-3-carbonitrile]",Evans blue (EB) in the bladder,[1]; IV bolus 1.0 μg/kg,0.7602 EB mg/kg tissue
same,Evans blue (EB) in the bladder,[1]; IV bolus 6 mg/kg,0.0701 EB mg/kg tissue
same,inhibition of plasma extravasation vs vehicle,"[1]; IV bolus 0.5, 1.0, and or 3.0 mg/kg, n=8",significant inhibition of plasma extravasation
same,inhibition of extravasation,[1]; IV bolus 1.0 and or 100 μg/kg,did not inhibit extravasation
same,ED50,"[1]; Mus musculus, intravenous, WT model, read-out: effective dose (ED50), plasma extravasation",0.46 mg/kg
same,block of plasma extravasation,"[1]; intravenous, high doses (500 μg/kg)",blocked plasma extravasation completely
same,% Remaining [30 minutes],[2]; 30 minutes,7%
same,% Remaining [60 minutes],[2]; 60 minutes,3%
same,IC50,[3],2.97 nM
